From US9409905B2, “Antibacterial compounds and methods for use” (PTC THERAPEUTICS, INC., priority 2011, dated 2016)
Converted amounts (≈) assume the structure as drawn.

Experiments:
[1] = test system: Escherichia coli (E. coli) BAS849; assay: Antibacterial activity, microbroth dilution MIC (Table 1); format: cell-based; conditions: microbroth dilution, super sensitive Gram-negative E. coli BAS849, read-out: MIC, BAS849
How it was run: (§1)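 Read-out: visual absence of growth. The lowest concentration meeting this gives the MIC, expressed in μg/mL, with microbroth dilution as the method.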

[2] = test system: Staphylococcus aureus (S. aureus) 29213; assay: as above; format: cell-based; conditions: microbroth dilution, Gram-positive S. aureus 29213, read-out: MIC, 29213
How it was run: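 Microbroth dilution was used. MIC, in μg/mL, is the lowest drug concentration preventing macroscopically visible growth under the test conditions.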

E. coli 25922 = assay: as above; format: cell-based, Escherichia coli; conditions: Escherichia coli; microbroth dilution; control Gram-negative E. coli 25922 strain; read-out: MIC, 25922
How it was run: as §1

E. coli LZ3111 = assay: Antibacterial activity, MIC, quinolone resistant strain (Table 2); format: cell-based; conditions: Escherichia coli, LZ3111, read-out: MIC LZ3111
How it was run: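 Broth microdilution. Read-out: MIC in μg/mL, taken as lowest concentration with no macroscopically visible growth.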

E. coli ELZ4000 = assay: Antibacterial activity, MIC, multi-drug resistant clinical isolate (Table 3); format: cell-based; conditions: Escherichia coli, ELZ4000, read-out: MIC ELZ4000
From the text: (§2) The antibacterial activity from a microbroth dilution method may be presented as the minimum inhibitory concentration (MIC in μg/mL). The MIC value is the lowest concentration of drug which prevents macroscopically visible growth under test conditions.
(§3) Antibacterial activity of test compounds against E. coli ELZ4000 and E. coli ELZ4251 multi-drug resistant clinical isolates is shown in Table 3.

E. coli ELZ4251 = assay: as above; format: cell-based; conditions: Escherichia coli
From the text: as §2, §3

[3] = test system: Acinetobacter baumannii (A. baumannii) BAA747; assay: Antibacterial activity, MIC (Table 4); format: cell-based; conditions: A. baumannii BAA747, read-out: MIC, BAA747
How it was run: (§4)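 Broth microdilution; MIC (μg/mL) = lowest concentration with no macroscopically visible growth. Resistant strains: multi-drug resistant clinical isolates.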

[4] = test system: Klebsiella pneumoniae (K. pneumoniae) 35657; assay: Antibacterial activity, MIC (Table 4); format: cell-based; conditions: K. pneumoniae 35657, read-out: MIC, 35657
How it was run: as §4

A. baumannii MXX2240 = assay: Antibacterial activity, MIC, resistant strain (Table 4); format: cell-based; conditions: Acinetobacter baumannii, MXX2240; resistant A. baumannii MMX2240, multi-drug resistant clinical isolate; read-out: MIC, MMX2240
How it was run: as §4

K. pneumoniae MXX1232 = assay: as above; format: cell-based; conditions: Klebsiella pneumoniae, MXX1232; resistant K. pneumoniae MMX1232, multi-drug resistant clinical isolate; read-out: MIC, MMX1232
How it was run: as §4

[5] = test system: Pseudomonas aeruginosa (P. aeruginosa) 27853; assay: Antibacterial activity, MIC (Table 5); format: cell-based; conditions: P. aeruginosa 27853, read-out: MIC, 27853
How it was run: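 Microbroth dilution; MIC (μg/mL) = lowest concentration with no macroscopically visible growth.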

SMILES: CCc1c(-c2ccc3ccn(C)c3c2)[nH]c(=O)c(C(=O)O)c1O [Cpd 8, 5-ethyl-4-hydroxy-6-(1-methyl-1H-indol-6-yl)-2-oxo-1,2-dihydropyridine-3-carboxylic acid]
- MIC [1]: 1 to 3.5 µg/mL (≈ 3.2 to 11.2 µM)
- MIC [2]: 3.5 to 12.5 µg/mL (≈ 11.2 to 40 µM)
- MIC (E. coli 25922): 12.5 to 150 µg/mL (≈ 40 to 480 µM)
- MIC (E. coli LZ3111): 3.5 to 12.5 µg/mL (≈ 11.2 to 40 µM)
- MIC (E. coli ELZ4000): 12.5 to 150 µg/mL (≈ 40 to 480 µM)
- MIC (E. coli ELZ4251): 12.5 to 150 µg/mL (≈ 40 to 480 µM)
- MIC [3]: 12.5 to 150 µg/mL (≈ 40 to 480 µM)
- MIC [4]: 12.5 to 150 µg/mL (≈ 40 to 480 µM)
- MIC (A. baumannii MXX2240): 12.5 to 150 µg/mL (≈ 40 to 480 µM)
- MIC (K. pneumoniae MXX1232): 12.5 to 150 µg/mL (≈ 40 to 480 µM)
- MIC [5]: 12.5 to 150 µg/mL (≈ 40 to 480 µM)

SMILES: CCc1c(-c2ccc3c(ccn3CCO)c2)[nH]c(=O)c(C(=O)O)c1O [Cpd 24, 5-ethyl-4-hydroxy-6-(1-(2-hydroxyethyl)-1H-indol-5-yl)-2-oxo-1,2-dihydropyridine-3-carboxylic acid]
- MIC [1]: < 1 µg/mL
- MIC [2]: 3.5 to 12.5 µg/mL (≈ 10.2 to 36.5 µM)
- MIC (E. coli 25922): 3.5 to 12.5 µg/mL (≈ 10.2 to 36.5 µM)
- MIC (E. coli LZ3111): 12.5 to 150 µg/mL (≈ 36.5 to 438 µM)
- MIC (E. coli ELZ4000): 12.5 to 150 µg/mL (≈ 36.5 to 438 µM)
- MIC (E. coli ELZ4251): 12.5 to 150 µg/mL (≈ 36.5 to 438 µM)
- MIC [3]: 3.5 to 12.5 µg/mL (≈ 10.2 to 36.5 µM)
- MIC (A. baumannii MXX2240): 12.5 to 150 µg/mL (≈ 36.5 to 438 µM)
- MIC (K. pneumoniae MXX1232): 12.5 to 150 µg/mL (≈ 36.5 to 438 µM)

SMILES: CCc1cc(C(=O)O)c(=O)[nH]c1-c1ccc2c(c1)cc(CN1CC[C@@H](F)C1)n2C [Cpd 129, (R)-5-ethyl-6-(2-((3-fluoropyrrolidin-1-yl)methyl)-1-methyl-1H-indol-5-yl)-2-oxo-1,2-dihydropyridine-3-carboxylic acid]
- MIC [1]: < 1 µg/mL
- MIC [2]: 3.5 to 12.5 µg/mL (≈ 8.81 to 31.5 µM)
- MIC (E. coli 25922): < 1 µg/mL
- MIC (E. coli LZ3111): 12.5 to 150 µg/mL (≈ 31.5 to 377 µM)
- MIC (E. coli ELZ4000): 12.5 to 150 µg/mL (≈ 31.5 to 377 µM)
- MIC (E. coli ELZ4251): 12.5 to 150 µg/mL (≈ 31.5 to 377 µM)
- MIC [3]: 3.5 to 12.5 µg/mL (≈ 8.81 to 31.5 µM)
- MIC [4]: 1 to 3.5 µg/mL (≈ 2.52 to 8.81 µM)
- MIC (A. baumannii MXX2240): 12.5 to 150 µg/mL (≈ 31.5 to 377 µM)
- MIC (K. pneumoniae MXX1232): 12.5 to 150 µg/mL (≈ 31.5 to 377 µM)
- MIC [5]: 12.5 to 150 µg/mL (≈ 31.5 to 377 µM)

SMILES: CCc1c(-c2ccc3c(c2)cc(CN2CC[C@@H](F)C2)n3C)[nH]c(=O)c(C(=O)O)c1O [Cpd 177, (R)-5-ethyl-6-(2-((3-fluoropyrrolidin-1-yl)methyl)-1-methyl-1H-indol-5-yl)-4-hydroxy-2-oxo-1,2-dihydropyridine-3-carboxylic acid]
- MIC [1]: < 1 µg/mL
- MIC [2]: 3.5 to 12.5 µg/mL (≈ 8.47 to 30.2 µM)
- MIC (E. coli 25922): 1 to 3.5 µg/mL (≈ 2.42 to 8.47 µM)
- MIC (E. coli LZ3111): 3.5 to 12.5 µg/mL (≈ 8.47 to 30.2 µM)
- MIC (E. coli ELZ4000): 12.5 to 150 µg/mL (≈ 30.2 to 363 µM)
- MIC (E. coli ELZ4251): 3.5 to 12.5 µg/mL (≈ 8.47 to 30.2 µM)
- MIC [4]: 1 to 3.5 µg/mL (≈ 2.42 to 8.47 µM)
- MIC (K. pneumoniae MXX1232): 12.5 to 150 µg/mL (≈ 30.2 to 363 µM)
- MIC [5]: 12.5 to 150 µg/mL (≈ 30.2 to 363 µM)

SMILES: CCc1c(-c2ccc3c(c2)cc(CN2CCC(OC)C2)n3C)[nH]c(=O)c(C(=O)O)c1O (stereo not drawn) [Cpd 179, 5-ethyl-4-hydroxy-6-(2-((3-methoxypyrrolidin-1-yl)methyl)-1-methyl-1H-indol-5-yl)-2-oxo-1,2-dihydropyridine-3-carboxylic acid]
- MIC [1]: < 1 µg/mL
- MIC [2]: 3.5 to 12.5 µg/mL (≈ 8.23 to 29.4 µM)
- MIC (E. coli 25922): 1 to 3.5 µg/mL (≈ 2.35 to 8.23 µM)
- MIC (E. coli LZ3111): 3.5 to 12.5 µg/mL (≈ 8.23 to 29.4 µM)
- MIC (E. coli ELZ4000): 12.5 to 150 µg/mL (≈ 29.4 to 353 µM)
- MIC (E. coli ELZ4251): 3.5 to 12.5 µg/mL (≈ 8.23 to 29.4 µM)
- MIC [3]: 1 to 3.5 µg/mL (≈ 2.35 to 8.23 µM)
- MIC (A. baumannii MXX2240): 3.5 to 12.5 µg/mL (≈ 8.23 to 29.4 µM)
- MIC (K. pneumoniae MXX1232): 12.5 to 150 µg/mL (≈ 29.4 to 353 µM)
- MIC [5]: 12.5 to 150 µg/mL (≈ 29.4 to 353 µM)

SMILES: CCc1c(-c2ccc3c(c2)cc(CN2CC(F)C2)n3C)[nH]c(=O)c(C(=O)O)c1O [Cpd 194, 5-ethyl-6-(2-((3-fluoroazetidin-1-yl)methyl)-1-methyl-1H-indol-5-yl)-4-hydroxy-2-oxo-1,2-dihydropyridine-3-carboxylic acid]
- MIC [1]: < 1 µg/mL
- MIC [2]: 3.5 to 12.5 µg/mL (≈ 8.76 to 31.3 µM)
- MIC (E. coli 25922): 1 to 3.5 µg/mL (≈ 2.5 to 8.76 µM)
- MIC (E. coli LZ3111): 3.5 to 12.5 µg/mL (≈ 8.76 to 31.3 µM)
- MIC (E. coli ELZ4000): 12.5 to 150 µg/mL (≈ 31.3 to 376 µM)
- MIC (E. coli ELZ4251): 12.5 to 150 µg/mL (≈ 31.3 to 376 µM)
- MIC [3]: 1 to 3.5 µg/mL (≈ 2.5 to 8.76 µM)
- MIC (A. baumannii MXX2240): 3.5 to 12.5 µg/mL (≈ 8.76 to 31.3 µM)
- MIC (K. pneumoniae MXX1232): 12.5 to 150 µg/mL (≈ 31.3 to 376 µM)
- MIC [5]: 12.5 to 150 µg/mL (≈ 31.3 to 376 µM)

SMILES: CCc1c(-c2ccc3c(c2)cc(CN2CCCC2CN(C)C)n3C)[nH]c(=O)c(C(=O)O)c1O (stereo not drawn) [Cpd 202, 6-(2-((2-((dimethylamino)methyl)pyrrolidin-1-yl)methyl)-1-methyl-1H-indol-5-yl)-5-ethyl-4-hydroxy-2-oxo-1,2-dihydropyridine-3-carboxylic acid]
- MIC [1]: < 1 µg/mL
- MIC [2]: 12.5 to 150 µg/mL (≈ 27.6 to 331 µM)
- MIC (E. coli 25922): 3.5 to 12.5 µg/mL (≈ 7.73 to 27.6 µM)
- MIC (E. coli LZ3111): 3.5 to 12.5 µg/mL (≈ 7.73 to 27.6 µM)
- MIC (E. coli ELZ4000): 12.5 to 150 µg/mL (≈ 27.6 to 331 µM)
- MIC (E. coli ELZ4251): 12.5 to 150 µg/mL (≈ 27.6 to 331 µM)
- MIC [3]: 12.5 to 150 µg/mL (≈ 27.6 to 331 µM)
- MIC [5]: 12.5 to 150 µg/mL (≈ 27.6 to 331 µM)

SMILES: CCc1c(-c2ccc3c(c2)cc(CN2CC(CO)C2)n3C)[nH]c(=O)c(C(=O)O)c1O [Cpd 271, 5-ethyl-4-hydroxy-6-(2-((3-(hydroxymethyl)azetidin-1-yl)methyl)-1-methyl-1H-indol-5-yl)-2-oxo-1,2-dihydropyridine-3-carboxylic acid]
- MIC [1]: < 1 µg/mL
- MIC [2]: 12.5 to 150 µg/mL (≈ 30.4 to 365 µM)
- MIC (E. coli 25922): < 1 µg/mL
- MIC (E. coli LZ3111): 3.5 to 12.5 µg/mL (≈ 8.51 to 30.4 µM)
- MIC (E. coli ELZ4000): 12.5 to 150 µg/mL (≈ 30.4 to 365 µM)
- MIC (E. coli ELZ4251): 3.5 to 12.5 µg/mL (≈ 8.51 to 30.4 µM)
- MIC [3]: 1 to 3.5 µg/mL (≈ 2.43 to 8.51 µM)
- MIC (A. baumannii MXX2240): 12.5 to 150 µg/mL (≈ 30.4 to 365 µM)
- MIC (K. pneumoniae MXX1232): 12.5 to 150 µg/mL (≈ 30.4 to 365 µM)
- MIC [5]: 3.5 to 12.5 µg/mL (≈ 8.51 to 30.4 µM)
